These results are taken from ChEMBL document CHEMBL1147642, “Elimination of antibacterial activities of non-peptide luteinizing hormone-releasing hormone (LHRH) antagonists derived from erythromycin A” (Bioorg Med Chem Lett, 2004).

SMILES strings stand for the structures. Values after ≈ are worked out from the molar mass of the structure shown. A value given as a limit tells only on which side of the number the result lay.

One assay deals with Streptococcus equinus. The experiment in a line: Minimum inhibitory activity against Streptococcus bovis A-5169. It is filed as functional.
Assay [1] concerns the target T1, Gonadotropin-releasing hormone receptor (Homo sapiens, UniProt P30968).
T1 sequence (P30968 whole entry): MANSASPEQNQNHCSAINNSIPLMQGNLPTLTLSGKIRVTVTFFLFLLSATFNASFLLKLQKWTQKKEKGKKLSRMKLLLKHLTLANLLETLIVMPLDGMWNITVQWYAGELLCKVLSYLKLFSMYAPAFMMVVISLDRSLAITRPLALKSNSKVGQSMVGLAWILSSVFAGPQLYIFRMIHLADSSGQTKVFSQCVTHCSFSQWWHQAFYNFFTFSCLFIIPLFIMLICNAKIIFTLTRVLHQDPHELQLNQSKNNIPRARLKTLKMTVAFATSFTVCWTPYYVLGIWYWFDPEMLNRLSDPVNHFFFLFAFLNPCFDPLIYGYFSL
The experiment in a line: Binding affinity against human luteinizing releasing hormone receptor cloned in CHO cells. It is filed as cell-based.

In assay [2] the test system is Staphylococcus epidermidis. The experiment in a line: Minimum inhibitory activity against Staphylococcus epidermidis 3519. It counts as functional.
The test system of the next assay is Enterococcus faecium. The experiment in a line: Minimum inhibitory activity against Enterococcus faecium ATCC 8043. It is filed as functional.
The subject of another assay is Streptococcus agalactiae. The experiment in a line: Minimum inhibitory activity against Streptococcus agalactiae CMX 508. It is filed as functional.
The test system of the next assay is Streptococcus pyogenes. The experiment in a line: Minimum inhibitory activity against Streptococcus pyogenes EES61. It counts as functional.
For another assay, the system named is Micrococcus luteus. Briefly: Minimum inhibitory activity against Micrococcus luteus ATCC 9341. It counts as functional.
The test system of another assay is Staphylococcus aureus. Briefly: Minimum inhibitory activity against Staphylococcus aureus ATCC 6538P. It is filed as functional.

Usually MIC stands for the lowest concentration found to suppress growth. A low value points to a more susceptible organism. The Ki is the dissociation constant of the complex between target and ligand, obtained from inhibition or displacement. Higher therefore signals a looser hold on the target.

For the compound `CC[C@H]1OC(=O)[C@H](C)[C@@H](OC(=O)N2C(=O)OC[C@@H]2C)[C@H](C)[C@@H](OC2O[C@H](C)C[C@H](N(C)C3CCCC3)[C@H]2O)[C@@](C)(OC)C[C@@H](C)C(=O)[C@H](C)[C@H]2N(CCc3ccc(Cl)cc3)C(=O)O[C@]12C` (stereo not given in full), the MIC was 3.1 µg/mL (≈ 3.32 µM) in the assay on Streptococcus equinus; more than 100 µg/mL in assay [2]; 6.2 µg/mL (≈ 6.63 µM) in the assay on Enterococcus faecium; 3.1 µg/mL (≈ 3.32 µM) against Streptococcus agalactiae; 3.1 µg/mL (≈ 3.32 µM) with Streptococcus pyogenes; 12.5 µg/mL (≈ 13.4 µM) in the assay with Micrococcus luteus. The compound also came in with an MIC with Staphylococcus aureus of more than 100 µg/mL. In assay [1], this compound showed a Ki of 3.89 nM.
Regarding `CC[C@H]1OC(=O)[C@H](C)[C@@H](OC2C[C@@](C)(OC)[C@@H](O)[C@H](C)O2)[C@H](C)[C@@H](OC2O[C@H](C)C[C@H](NC)[C@H]2O)[C@@](C)(OC)C[C@@H](C)C(=O)[C@H](C)[C@H]2N(CCc3ccc(Cl)cc3)C(=O)O[C@]12C` (stereo not given in full), the MIC came to 0.2 µg/mL (≈ 0.223 µM) against Streptococcus equinus; 1.56 µg/mL (≈ 1.74 µM) in assay [2]; 0.39 µg/mL (≈ 0.435 µM) in the assay with Enterococcus faecium; 0.05 µg/mL (≈ 0.0557 µM) against Streptococcus agalactiae; 0.1 µg/mL (≈ 0.111 µM) with Streptococcus pyogenes; 0.2 µg/mL (≈ 0.223 µM) in the assay on Micrococcus luteus. The MIC with Staphylococcus aureus was 1.56 µg/mL (≈ 1.74 µM). Moreover, affinity in assay [1] was put at a Ki of 79.4 nM.
Take `CC[C@H]1OC(=O)[C@H](C)[C@@H](OC(=O)N2C(=O)OC[C@@H]2C)[C@H](C)[C@@H](OC2O[C@H](C)C[C@H](N(CC3CC3)CC3CC3)[C@H]2O)[C@@](C)(OC)C[C@@H](C)C(=O)[C@H](C)[C@H]2N(CCc3ccc(Cl)c(Cl)c3)C(=O)O[C@]12C` (stereo not given in full): the minimum inhibitory concentration (MIC) is 50 µg/mL (≈ 50.2 µM) in the assay on Streptococcus equinus; more than 100 µg/mL in assay [2]; more than 100 µg/mL in the assay on Enterococcus faecium; 100 µg/mL (≈ 100 µM) in the assay on Streptococcus agalactiae; 50 µg/mL (≈ 50.2 µM) with Streptococcus pyogenes; 100 µg/mL (≈ 100 µM) against Micrococcus luteus. In the assay on Staphylococcus aureus, this compound came in with an MIC of more than 100 µg/mL. The same compound had a Ki in assay [1] of 1.29 nM.
With `CC[C@H]1OC(=O)[C@H](C)[C@@H](OC(=O)N2C(=O)OC[C@@H]2C)[C@H](C)[C@@H](OC2O[C@H](C)C[C@H](N(C)C3CCCCC3)[C@H]2O)[C@@](C)(OC)C[C@@H](C)C(=O)[C@H](C)[C@H]2N(CCc3ccc(Cl)c(Cl)c3)C(=O)O[C@]12C` (stereo not given in full), the MIC in the assay on Streptococcus equinus is 6.2 µg/mL (≈ 6.31 µM); in assay [2], more than 100 µg/mL; against Enterococcus faecium, more than 100 µg/mL; in the assay on Streptococcus agalactiae, 6.2 µg/mL (≈ 6.31 µM); in the assay with Streptococcus pyogenes, 6.2 µg/mL (≈ 6.31 µM); with Micrococcus luteus, more than 100 µg/mL. This compound also registered an MIC against Staphylococcus aureus of more than 100 µg/mL. In assay [1], this compound showed a Ki of 7.24 nM.
For `CCC(C)N(CC1CC1)[C@H]1C[C@@H](C)OC(O[C@@H]2[C@@H](C)[C@H](OC3C[C@@](C)(OC)[C@@H](O)[C@H](C)O3)[C@@H](C)C(=O)O[C@H](CC)[C@@]3(C)OC(=O)N(CCc4ccc(Cl)cc4)[C@@H]3[C@@H](C)C(=O)[C@H](C)C[C@]2(C)OC)[C@@H]1O` (stereo not given in full), the MIC (against Streptococcus equinus; in assay [2]; with Enterococcus faecium; against Streptococcus agalactiae; against Streptococcus pyogenes; in the assay on Micrococcus luteus) was more than 100 µg/mL each time. This compound had a minimal inhibitory concentration (MIC) with Staphylococcus aureus of more than 100 µg/mL. The compound also gave a Ki in assay [1] of 27.5 nM.
